The values that follow come from patent publication US7169805B2 (Nicox S.A., priority 2003, dated 2007).

One data set relates to SHR rats. The data set can be described thus: Antihypertensive activity in a genetic model of hypertension (SHR rats), arterial pressure. The format is in vivo, rat. The conditions noted are these: single oral dose 30 mg/Kg; for Arterial pressure (MAP): 4 hours after treatment; for Reduction of blood pressure vs the control: 4 hrs after treatment. The method, then: (§1) SHR rats were treated orally in a single dose of 30 mg/Kg. After 2 hours the animal were anaesthetized with tiopental-Na; a fluid catheter was inserted in a right carotid artery and connected to a transducer for the homodynamic measurements. 4 hours after the treatment the arterial pressure (MAP, mmHg) was measured.

A further data set deals with T1, ACE (Rattus norvegicus, UniProt P47820).
T1 construct: from tissue; host or cells: heparinized plasma of orally treated SHR rats
T1 sequence (P47820 36-1238 limits assumed): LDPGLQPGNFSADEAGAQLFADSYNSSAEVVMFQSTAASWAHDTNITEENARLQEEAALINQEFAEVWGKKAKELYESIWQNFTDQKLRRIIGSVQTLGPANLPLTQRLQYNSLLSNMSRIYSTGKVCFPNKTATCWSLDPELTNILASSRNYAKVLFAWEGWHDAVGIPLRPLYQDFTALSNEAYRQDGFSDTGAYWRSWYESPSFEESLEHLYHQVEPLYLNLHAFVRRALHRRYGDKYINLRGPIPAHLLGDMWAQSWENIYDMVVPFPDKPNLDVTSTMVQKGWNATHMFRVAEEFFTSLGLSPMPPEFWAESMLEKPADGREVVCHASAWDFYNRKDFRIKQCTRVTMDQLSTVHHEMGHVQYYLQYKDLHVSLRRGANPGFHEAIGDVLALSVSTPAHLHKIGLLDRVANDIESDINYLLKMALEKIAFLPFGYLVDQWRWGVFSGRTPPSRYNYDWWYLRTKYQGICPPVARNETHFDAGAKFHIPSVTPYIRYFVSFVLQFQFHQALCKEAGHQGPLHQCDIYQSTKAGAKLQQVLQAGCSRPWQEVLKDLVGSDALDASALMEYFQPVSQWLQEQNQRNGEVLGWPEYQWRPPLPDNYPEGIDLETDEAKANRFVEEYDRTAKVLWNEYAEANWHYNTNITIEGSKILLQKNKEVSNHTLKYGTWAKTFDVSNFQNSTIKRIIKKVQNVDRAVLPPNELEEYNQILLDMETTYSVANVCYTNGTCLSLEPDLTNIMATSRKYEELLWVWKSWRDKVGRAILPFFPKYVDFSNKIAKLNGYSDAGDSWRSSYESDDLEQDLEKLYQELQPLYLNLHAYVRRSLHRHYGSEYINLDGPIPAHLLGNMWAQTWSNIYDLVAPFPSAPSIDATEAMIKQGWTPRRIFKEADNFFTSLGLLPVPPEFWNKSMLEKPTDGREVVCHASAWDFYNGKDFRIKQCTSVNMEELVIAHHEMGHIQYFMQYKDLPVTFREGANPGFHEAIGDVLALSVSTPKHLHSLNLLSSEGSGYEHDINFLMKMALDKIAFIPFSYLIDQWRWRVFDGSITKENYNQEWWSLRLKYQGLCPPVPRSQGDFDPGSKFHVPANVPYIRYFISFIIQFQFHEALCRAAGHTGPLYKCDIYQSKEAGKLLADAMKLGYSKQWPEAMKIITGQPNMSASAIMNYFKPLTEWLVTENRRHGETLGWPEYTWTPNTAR
The data set can be described thus: Plasma ACE activity of treated SHR rats, spectrophotometric FAPGG hydrolysis. The conditions noted are these: heparinized plasma of SHR rats after single oral dose 30 mg/Kg, collected at end of experiment. The format is in vivo. On the procedure: as §1
At the end of the experiments the blood was collected from the right carotid. The heparinized blood samples were centrifuged at 1000 g for 20 min at 4° C. The plasma was stored at −20° C. until the ACE activity measurements.
The ACE activity was determined by a spectrophotometric method (Sigma) based on the enzymatic reaction catalysed by ACE, where the FAPGG was hydrolysed to FAP.
FAPGG hydrolysis produced a decrease in the absorbance at 340 nm, a marker of ACE activity in the sample. Results, reported in table 3, were expressed as U/L in heparinized plasma.

Data set [1] relates to isolated rabbit thoracic aorta preparations. Put plainly: Vasorelaxing activity in isolated rabbit thoracic aorta rings precontracted with noradrenaline. The following applies: for IC50 / Emax: Oryctolagus cuniculus, NA (1 μM) precontracted rings with functional endothelium; for IC50: read-out: IC50 (concentration producing 50% of the maximum relaxation); for Emax: at 100 μM of tested compound, read-out: Emax (maximum efficacy). In kind it is cell-based. On the procedure:
Male New Zealand rabbits were anaesthetized with thiopental-Na (50 mg/kg, iv), sacrificed by exsanguinations and then the thorax was opened and the aorta dissected. Single ring preparations (4 mm in length) of thoracic aorta were set up in physiological salt solution (PSS) at 37° C. in small organ chambers (5 ml). The composition of PSS was (mM): NaCl 130, NaHCO3 14.9, KH2PO4 1.2, MgSO4 1.2, HEPES 10, […] (95% O2/5% CO2; pH 7.4). Each ring was mounted under 2 g passive tension. Isometric tension was recorded with a Grass transducer (Grass FT03) attached to a BIOPAC MP150 System. Preparations were allowed to equilibrate for 1 h, then contracted submaximally with noradrenaline (NA, 1 μM) and, when the contraction was stable, acetylcholine (ACh, 10 μM) was added. A relaxant response to ACh indicated the presence of a functional endothelium. […] When a stable precontraction was reached, a cumulative concentration-response curve for each of the tested compounds was obtained in the presence of a functional endothelium. Time intervals between different concentrations were based on the time needed to reach a full response. Each arterial ring was exposed to only one combination of inhibitor and the tested compounds. Moreover, the effect of the soluble guanylyl cyclase inhibitor ODQ (1-H-(1,2,4)-oxadiazol (4,3-a)quinoxalin-1-one) on the dilator responses elicited by the compounds was examined preincubating the aortic rings with ODQ (10 μM) for 20 min.
Results are expressed as IC50 value, which is the concentration of the tested compound producing 50% of the maximum relaxation, and as Emax value which is the maximum efficacy at a concentration of 100 μM of the tested compound.
During the experimental period, the plateau obtained with NA was stable without significant spontaneous loss of contraction in the aortic rings.
Furthermore, in experiments performed in presence of ODQ (10 μM), the vasorelaxant responses to all the tested compounds were inhibited.

The conditions of data set [2]: given orally; cited from earlier work.

In general, Emax refers to the size of the effect at its maximum, as opposed to the concentration needed. As to `CC(=O)SC[C@@H](C)C(=O)N1CCC[C@H]1C(=O)Oc1cccc(CO[N+](=O)[O-])c1` [Ex. 8b, 1-[3-(acetylthio)-(2S)-methyl-1-oxopropyl]-L-proline 3-nitrooxymethylphenyl ester], in the data set on SHR rats, the “Arterial pressure (MAP)” value is 116 mmHg and the “Reduction of blood pressure vs the control” value turned out to be 43%. Further, on ACE, the ACE activity turned out to be 53 U/L. Moreover, in data set [1], the IC50 stood at 4.01 ± 1.18 µM and the Emax amounted to 92.4 ± 4.15%.

On to `CC(=O)SC[C@@H](C)C(=O)N1CCC[C@H]1C(=O)OCCCO[N+](=O)[O-]` [Ex. 8, 1-[3-(Acetylthio)-(2S)-methyl-1-oxopropyl]-L-proline 3-nitrooxypropyl ester], for which, in the data set on SHR rats, the “Arterial pressure (MAP)” value turned out to be 132 mmHg and the “Reduction of blood pressure vs the control” value is given as 35%. The ACE activity at ACE came to 59 U/L. Moreover, in data set [1], the IC50 was 26.1 ± 3.91 µM and the Emax was determined as 77.9 ± 3.21%.

Regarding `C[C@H](CS)C(=O)N1CCC[C@H]1C(=O)O` [Captopril, 1-[(2S)-3-mercapto-2-methylpropionyl]-L-proline, reference compound], in the data set with SHR rats, the “Arterial pressure (MAP)” value is on record as 145 mmHg. The Emax in data set [1] was 0%. The “Relaxation of aortic rings (in words)” value in data set [1] (any of the concentrations tested, curve not different from vehicle alone) was “did not produce relaxation”. Further, in data set [2], the Bioavailability result is reported as “about 75%” and the “Elimination route (in words)” value is given as “most of the drug is eliminated in urine”.

As to `CC(=O)SC[C@@H](C)C(=O)N1CCC[C@H]1C(=O)N[C@H](Cc1ccccc1)C(=O)Oc1cccc(CO[N+](=O)[O-])c1` [Ex. 9, 1-[(2S)-3-(Acetylthio)-2-methyl-1-oxopropyl]-L-prolyl-L-phenylalanine 3-nitrooxymethyl phenyl ester], in data set [1], the IC50 came to 3.2 ± 0.65 µM and the maximal response (Emax) was found to be 96.8 ± 0.65%.

`C[C@H](CSC(=O)OCO[N+](=O)[O-])C(=O)N1CCC[C@H]1C(=O)O` [Ex. 3, 1-[(2S)-3-(Nitrooxymethoxycarbonyl)mercapto-2-methyl-1-oxopropyl]-L-proline]: in data set [1], the IC50 is 6.7 ± 0.84 µM and the Emax amounted to 97.9 ± 1.51%.

With `C[C@H](CSC(=O)OCCCCO[N+](=O)[O-])C(=O)N1CCC[C@H]1C(=O)O` [Ex. 2, 1-[(2S)-3-(4-Nitrooxybutoxycarbonyl)mercapto-2-methyl-1-oxopropyl]-L-proline], in data set [1], the IC50 stood at 6 ± 0.87 µM and the maximal response (Emax) was determined as 96.9 ± 1.87%.
